Earlier results in PMC2913283 (Bioconjugate chemistry, 2010).

Details: initial studies

- stability in vitro: not stable in vitro
Substance: Diethylenetriaminepenatacetic acid-(DTPA-Al^18F) complexes
